How the values were obtained:
[1] = biological target: T1, PDI (Homo sapiens, UniProt P07237); assay: Resonant waveguide optical biosensor binding assay; set-up: purchased Sino Biological Inc., Beijing, China; settings: immobilized human recombinant protein, curve fitting
Method: (§1) Protein immobilization was accomplished by applying 10 μL of 50 μg/mL human PDI (Sino Biological Inc., Beijing, China) or 50 μg/mL human HSP70 (Sino Biological) or 100 μg/mL human HSP90 (Sino Biological) in 20 mM sodium acetate pH 5.5 into a preactivated 384-well biochemical plate (Perkin Elmer) and incubating overnight at 4°C. The microplates were subsequently washed three times with assay buffer (PBS, pH 7.4/0.005% Tween 20/3% DMSO) and, after 25 minutes thermal equilibration, a baseline reading was taken in the Enspire Multimode Plate Reader (Perkin Elmer). Finally, 15 μL assay buffer was added including different concentrations of Ac-915 or Ac-2010. The Enspire response is measured as a shift in reflected wavelength and is expressed in picometers (pm). The affinity (KD) was calculated using a curve fitting method.
Direct biomolecular interactions were determined between human recombinant and purified HSP70, HSP90, PDI proteins and Ac-915 and Ac-2010 with resonant waveguide optical biosensor technology in a biochemical binding assay. The technology is based on a microplate with resonant waveguide optical biosensors integrated into each well and a high throughput screening-compatible optical reader (Enspire system, Perkin Elmer). The biochemical interaction between the small molecule and the protein was measured as a shift in reflected wavelength and is expressed in picometers (pm). […]

[2] = biological target: T1, PDI; assay: Protein disulfide isomerase assay (catalytic reduction of insulin, turbidity at 650 nm); format: biochemical; set-up: purchased Sino Biological; settings: insulin reduction in presence of 1 mM DTT, 25°C
Method: The assay is based on the measurement of the catalytic reduction of insulin as described by Lundstrom and Holmgren. In this assay, PDI facilitates the reduction of insulin in the presence of DTT. The reduced insulin chains aggregate, and the turbidity is monitored spectrophotometrically at 650 nm. The assay was performed in a 96-well plate format and a volume of 30 μl in the presence of 1 mM DTT, 1 μg PDI (Sino Biological), 0.14 mM bovine pancreas insulin (Sigma), and 0.2 mM EDTA in 100 mM potassium phosphate, pH 7.0. The progress of the reaction was monitored on a 96-well plate reader (Model 680 Microplate Reader, Bio-Rad Laboratories) at 650 nm for 95 minutes at 25°C. Ac-915, Ac-2010 or DMSO control was added prior to the addition of enzyme at the concentrations indicated. The nonenzymatic reduction of insulin by DTT was recorded in a control well without PDI. IC50 values of the compounds were calculated using nonlinear regression analysis.
These values are in good correlation with the KD values determined by direct biochemical interaction measurements using waveguide optical biosensors. The activity of PDI was based on the measurement of the catalytic reduction of insulin as described by Lundstrom and Holmgren. In this assay both analogs inhibited the PDI-induced reduction of insulin in the presence of dithiothreitol. […]

[3] = Solubility (data not shown); format: physicochemical
[4] = test system: HepG2; assay: MTS cytotoxicity assay (CellTiter 96 AQueous); format: cell-based; settings: Homo sapiens, 48 h exposure
Method: (§2) Hep3B and HepG2 cells were grown in mixture of Dulbecco’s Modified Eagle Medium (D-MEM) (high glucose) (Gibco BRL, Carlsbad, CA, USA) and Nutrient Mixture F-12 Ham (Sigma, St. Louis, MO, USA) containing penicillin (50 IU/ml)–streptomycin ([…]) and 10% fetal bovine serum. For cytotoxicity assays, cells were seeded at a density of 10.000 cells per well into 96-well cell culture plates and maintained in a humidified atmosphere of 95% air and 5% CO2 for 12 h, then treated with different concentrations of Ac-2010 or Ac-915. MTS (3-(4,5-dimethylthiazol-2-yl)-5-(3-carboxymethoxy-phenyl)-2-(4-sulfophenyl)-2H-tetrazolium) assay was applied to drug treated and control (0.2% DMSO) cells with CellTiter 96® AQueous Assay (Promega, Madison, WI) according to the manufacturer’s protocol.
(§3) Their cytotoxic effects on human hepatocellular carcinoma cell lines (namely: HepG2, Hep3B and Huh7) were measured by using the MTS assay. […] Both Ac-915 and Ac-2010 induced cell death of liver cancer cells at sub- or low micromolar ranges.

[5] = test system: Hep3B; assay: MTS cytotoxicity assay (CellTiter 96 AQueous); format: cell-based; settings: Homo sapiens, 48 h exposure
Method: as §2, §3

[6] = test system: Huh7; assay: MTS cytotoxicity assay (CellTiter 96 AQueous); format: cell-based; settings: Homo sapiens, Huh-7, 48 h exposure
Method: as §2, §3

[7] = test system: Hep3B; assay: Glutathione measurement (GSH-Glo); format: cell-based, human; settings: treated Hep3B cells
Method: HepG2 cells (20000 cells per well in a 96-well plate) were incubated with Ac-915 in 50 μl PBS for 2 hours in a humidified atmosphere of 95% air and 5% CO2. 50 μl aliquots of prepared 2X GSH-GloTM Reagent (GSH-GloTM Glutathione assay; Promega, Madison, WI) were added to the wells and incubation continued at room temperature for 30 minutes. 100 μl of reconstituted Luciferin Detection Reagent (Promega) was added to each well and cells were incubated for 15 minutes further. Negative controls and blank reactions were also prepared. The amount of light produced was detected by luminometer.
Toxic compounds and numerous anticancer agents interfere with chaperone and ER functions leading to cellular stress which is manifested by elevated reactive oxygen species (ROS) and dramatic decrease in the anti-oxidant, glutathione (GSH) level. To investigate whether Ac-915 and Ac-2010 exert a pro-oxidative effect as determined earlier for other amino-trifluoro-phthalimides and “redox-reactive” thalidomide analogs, we measured the presence of ROS in human hepatocellular carcinoma cells (Hep3B) Figure 4a. To reveal the correlation of depletion of glutathione and ROS production of the analogs we determined the intracellular concentrations of glutathione. To determine whether Ac-915 and Ac-2010 affect intracellular GSH levels Hep3B cells were treated with compounds and GSH levels were recorded.

[8] = test system: DEN-induced liver tumors; assay: DEN-induced hepatocellular carcinoma in Matn2-/- mice; format: in vivo; settings: started 4 months after DEN, assessed 8 months after DEN
Method: All mice were fed a commercial diet and water ad libitum and were housed in an animal facility under a 12 h light/dark cycle at constant temperature and humidity. For all of our studies, we employed male Matn2-deficient mice (Matn2^−/−) congenic in the 129/Sv genetic background.
For studies of liver tumor development, 15-day-old mice were treated with a single dose of DEN (Sigma-Aldrich, Budapest, Hungary) dissolved in saline at a dose of 25 mg/kg body weight by i.p. injection. 4 months after DEN injection mice were treated with either Ac-915 for 3 months (n = 15) or with Ac-2010 for 1 month (n = 10). Mice were killed 8 months after DEN administration for determination of tumor occurrence (number of tumor nodules) and liver mass index (liver weight/body weight × 100). Treatments were conducted by i.p. injection of Ac-915 at a dose of 10 mg/kg body weight three times a week or Ac-2010 at a dose of 4 mg/kg body weight three times a week.
For studies of liver tumor development, 15-day-old mice were treated with a single dose of DEN as described previously. Mice in the Ac-915 treated group (n = 15) were treated 4 months after DEN treatment for an additional 3 months. […] Mice were killed 8 months after DEN administration and the number and size of tumors and liver mass index were determined.
Liver samples were analyzed at the same time point, 8 months after DEN administration. […]

[9] = test system: Hep3B; assay: ROS determination (DCFDA fluorescence, FACS); format: cell-based, human
Method: ROS generation was determined by the increase in DCFDA (2',7'-dichlorodihydrofluorescein diacetate, Sigma) fluorescence after drug stimulation. HepG2 cells were washed, resuspended in 1% bovine serum albumin in Hanks buffered saline solution (BSA-HBSS) at 10^6 cells/mL and maintained at 37°C for analysis. Cells were treated with the indicated drugs (Ac-915, Ac-2010). DCFDA was added 60 min prior to harvest, at 2 μM final concentration and intracellular ROS production was measured by using a fluorescence activated cell sorter (Beckton Dickinson) with 20,000 events/test. All the other parameters and calculations were as described before.
Toxic compounds and numerous anticancer agents interfere with chaperone and ER functions leading to cellular stress which is manifested by elevated reactive oxygen species (ROS) and dramatic decrease in the anti-oxidant, glutathione (GSH) level. To investigate whether Ac-915 and Ac-2010 exert a pro-oxidative effect as determined earlier for other amino-trifluoro-phthalimides and “redox-reactive” thalidomide analogs, we measured the presence of ROS in human hepatocellular carcinoma cells (Hep3B) Figure 4a. To reveal the correlation of depletion of glutathione and ROS production of the analogs we determined the intracellular concentrations of glutathione. […]

[10] = biological target: T2, human HSP70 (Homo sapiens, UniProt P0DMV8); assay: Resonant waveguide optical biosensor binding assay; settings: immobilized human recombinant protein, curve fitting
T2 construct: purchased Sino Biological
Method: as §1
(§4) Direct biomolecular interactions were determined between human recombinant and purified HSP70, HSP90, PDI proteins and Ac-915 and Ac-2010 with resonant waveguide optical biosensor technology in a biochemical binding assay. The technology is based on a microplate with resonant waveguide optical biosensors integrated into each well and a high throughput screening-compatible optical reader (Enspire system, Perkin Elmer). The biochemical interaction between the small molecule and the protein was measured as a shift in reflected wavelength and is expressed in picometers (pm). The binding of both analogs to each of the protein was specific and saturable with the dose response (data not shown).

[11] = biological target: human HSP90; assay: Resonant waveguide optical biosensor binding assay; settings: immobilized human recombinant protein, curve fitting
Method: as §1, §4

[12] = test system: HepG2 cell migration; assay: Real-time cell migration assay, RTCA DP xCELLigence (CIM-plate 16); format: cell-based, human
[13] = Acute toxicity (data not shown); format: in vivo
[14] = test system: HepG2; assay: Real-time cytotoxicity, xCELLigence System (RT-CES); format: cell-based, human; settings: for Cytotoxic effect in real time (cell index): HepG2, impedance monitored for 48 h
Method: (§5) Cytotoxicity and cell migration was monitored with the real-time cell electronic sensing, xCELLigence System (RT-CES, Acea-Roche). Cytotoxicity effects of Ac-2010 and Ac-915 compounds were tested on two different hepatocellular carcinoma cell lines (HepG2 and Hep3B). The RT-CES 96-well E-plate was coated with gelatin and then washed twice with PBS. Growth media (respective to cell types) were then gently dispensed into each well of the 96-well E-plate for background readings by the RT-CES system prior to addition of cell suspension at a density of 6000 cells/well. Devices containing the cell suspension were kept at 37° in a CO2 incubator for 8 h prior to treatment with different concentrations of Ac-2010 and Ac-915. Cell growth was monitored for 48 h by measurements of electrical impedance every 5 min.
(§6) Cytotoxic effects of Ac-915 and Ac-2010 compounds were also tested by the real-time cell electronic sensing, xCELLigence System (RT-CES) on two different hepatocellular carcinoma cell lines (Huh7, HepG2). This technology is based on proprietary microelectronic cell sensor arrays that are integrated in the bottom of the microtiter plates (96-well E-plate). When cells are cultured in a well, impedance is measured between sensor electrodes and the attached cells that act as insulators, which is converted into cell index number.

[15] = test system: Huh7; assay: as above; format: cell-based, human; settings: Huh7, impedance monitored for 48 h
Method: as §5, §6

[16] = Tissue distribution by fluorescent confocal microscopy of native tissue sections after i.v. injection; format: in vivo; settings: mice, i.v. 20 mg/kg
Method: Mice were injected i.v. with Ac-915 or Ac-2010 (20 mg/kg) and after different time points tissues were dissected, washed in PBS, embedded in Tissue-Tek® O.C.T™ medium. After fast-freezing, the samples were stored at −20°C. Tissue sections (20 μm) were prepared by using a Leica CM1950 cryostat at −20°C. From each tissue (liver, brain, kidney, muscle, heart) three independent images were recorded as above. Images were analyzed with the Olympus Fluoview 1.6 Ver Viewer software.
To determine the tissue distribution of trifluor-amino-phtalimides, compounds were administered by i.v. injection into mice, the animals were killed at different time points and different organs were dissected. Native microscope sections were prepared and analyzed under fluorescent microscope. Because our analogs have strong inherent blue fluorescence, relative tissue distribution can be determined by using fluorescent microscopy with 405 nm laser with DAPI configuration. […] The target organs of Ac-915 seemed to be the kidney and preferentially, the liver.

T1 sequence (P07237 18-508): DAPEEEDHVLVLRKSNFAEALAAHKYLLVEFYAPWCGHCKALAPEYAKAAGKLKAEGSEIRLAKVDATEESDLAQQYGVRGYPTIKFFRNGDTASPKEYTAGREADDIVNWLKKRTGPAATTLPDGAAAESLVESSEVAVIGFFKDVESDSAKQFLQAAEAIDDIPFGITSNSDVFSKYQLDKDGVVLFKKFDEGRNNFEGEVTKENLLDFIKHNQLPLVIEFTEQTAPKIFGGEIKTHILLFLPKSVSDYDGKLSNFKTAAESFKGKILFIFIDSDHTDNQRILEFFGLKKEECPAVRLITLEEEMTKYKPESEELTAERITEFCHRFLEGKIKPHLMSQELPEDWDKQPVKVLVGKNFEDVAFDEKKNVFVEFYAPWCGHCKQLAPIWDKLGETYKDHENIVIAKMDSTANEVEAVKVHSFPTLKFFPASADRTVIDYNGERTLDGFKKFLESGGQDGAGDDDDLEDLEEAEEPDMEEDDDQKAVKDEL
T2 sequence (P0DMV8 whole entry): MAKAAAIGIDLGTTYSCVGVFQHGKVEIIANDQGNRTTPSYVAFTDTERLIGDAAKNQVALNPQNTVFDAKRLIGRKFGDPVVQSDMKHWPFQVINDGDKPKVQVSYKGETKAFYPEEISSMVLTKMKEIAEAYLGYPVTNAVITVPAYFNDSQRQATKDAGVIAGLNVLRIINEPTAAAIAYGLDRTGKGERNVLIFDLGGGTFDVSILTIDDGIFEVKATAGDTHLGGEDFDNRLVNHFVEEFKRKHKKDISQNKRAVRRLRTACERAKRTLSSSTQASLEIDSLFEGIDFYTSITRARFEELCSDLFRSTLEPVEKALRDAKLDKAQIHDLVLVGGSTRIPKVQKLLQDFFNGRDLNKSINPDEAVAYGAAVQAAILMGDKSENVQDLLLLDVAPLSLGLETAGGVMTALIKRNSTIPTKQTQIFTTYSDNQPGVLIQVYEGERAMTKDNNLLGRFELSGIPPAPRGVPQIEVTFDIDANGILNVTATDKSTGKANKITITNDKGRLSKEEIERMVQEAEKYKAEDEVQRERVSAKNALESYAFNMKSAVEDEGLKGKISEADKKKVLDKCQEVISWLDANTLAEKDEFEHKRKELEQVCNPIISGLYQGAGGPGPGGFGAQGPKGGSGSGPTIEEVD

| Structure (SMILES) | Kd [1] | IC50 [2] | EC50 [4] | EC50 [5] | EC50 [6] | Intracellular GSH levels [7] | Intracellular ROS induction [9] | Kd [10] | Kd [11] | Cytotoxic effect in real time (cell index) [14] | Cytotoxic effect in real time (cell index) [15] | other results |
| --- | --- | --- | --- | --- | --- | --- | --- | --- | --- | --- | --- | --- |
| CC(C)c1cccc(C(C)C)c1N1C(=O)c2c(F)c(F)c(F)c(NC(=O)NC(=O)CCl)c2C1=O [Ac-2010] | ~6 µM | ~9 µM | 1.05 µM | 0.54 µM | 0.94 µM | depleted intracellular GSH levels | induce intracellular reactive oxygen species | ~16 µM | ~16 µM | micromolar cytotoxic effects | micromolar cytotoxic effects | Solubility compared with Ac-915 [3]: better solubility; Liver tumor incidence, number of tumors and liver mass index vs untreated control ([8]; 4 mg/kg i.p. three times a week for 1 month, p < 0.01): less liver tumor incidence, fewer tumors and lower liver mass index; Inhibition of cell migration ([12]; 250 nM): inhibited migration; Inhibition of cell migration ([12]; higher concentration, 2 h after administration): completely inhibited cell migration; Acute toxicity compared with Ac-915 [13]: higher acute toxicity; Cytotoxicity at the migration-inhibiting concentration ([14]; 250 nM, HepG2 cells): no cytotoxicity could be detected |
| CC(C)c1cccc(C(C)C)c1N1C(=O)c2c(F)c(F)c(F)c(N[C@@H]3C=CS(=O)(=O)C3)c2C1=O [Ac-915, 2-[2,6-bis(propane-2-yl)phenyl]-4-{[(3R)-1,1-dioxo-2,3-dihydro-thiophene-3-yl]amino}-5,6,7-trifluoro-2,3-dihydro-1H-isoindole-1,3-dione] | ~10.5 µM | ~15 µM | 1.21 µM | 0.76 µM | 1.66 µM | depleted intracellular GSH levels | induce intracellular reactive oxygen species | 14 µM | 11.5 µM | micromolar cytotoxic effects | micromolar cytotoxic effects | Liver tumor development vs control mice ([8]; 10 mg/kg i.p. three times a week for 3 months): significantly less tumor development; Fluorescence in the liver [16]: strong fluorescent signals; Time of peak fluorescence in the liver [16]: 4 h; Fluorescence in the kidney ([16]; 2 and 4 h after administration): strong signals; Fluorescence in the brain ([16]; 1 h after administration): only a slight fluorescence increase; Fluorescence in the heart ([16]; 4 h after administration): minor fluorescence increase |
